Consider three molecules from patent publication US12433900B2, “Intravitreal corticosteroid extended release implant and methods of use” (Eyedea Bio, LLC, priority 2021, dated 2025).

This series is described as follows: Calculated Octanol Solubility Index (OSI) and Topological Polar Surface Area (TPSA) of the API. Conditions: calculated using the log P and maximal aqueous solubility.

From the text: The interactions between API and complexation agent and/or dispersal medium can be predicted based on the Octanol Solubility Index (OSI) and Topological Polar Surface Area (TPSA) of the API. TPSA is a calculated measure of a molecule's polarity based on the number of polar atoms contained in the molecule. OSI is a measure of compound lipophilicity and can be calculated using the log P and maximal aqueous solubility of the compound by the formula:

Consider `CC1(C)O[C@@H]2C[C@H]3[C@@H]4C[C@H](F)C5=CC(=O)C=C[C@]5(C)[C@@]4(F)[C@@H](O)C[C@]3(C)[C@]2(C(=O)CO)O1` [fluocinolone acetonide, 6α,9α-difluoro-11β,16α,17α,21-tetrahydroxypregna-1,4-diene-3,20-dione cyclic 16α,17α-acetal with acetone], for which the “OSI (Octanol Solubility Index)” value is 3.48. The same measure for `C[C@@H]1C[C@H]2[C@@H]3CCC4=CC(=O)C=C[C@]4(C)[C@@]3(F)[C@@H](O)C[C@]2(C)[C@@]1(O)C(=O)COP(=O)(O)O` [dexamethasone phosphate]: 3.71; for `C[C@@H]1C[C@H]2[C@@H]3CCC4=CC(=O)C=C[C@]4(C)[C@@]3(F)[C@@H](O)C[C@]2(C)[C@@]1(O)C(=O)CO` [dexamethasone free base, 9α-fluoro-11β,17α,21-trihydroxy-16α-methylpregna-1,4-diene-3,20-dione]: 3.85.
